These results are taken from ChEMBL document CHEMBL1201862, “PubChem BioAssay data set” (2004).

Test systems include NCI-H226; COLO 205; OVCAR-8; SK-MEL-5; OVCAR-4; K562; A549; T47D; HCT-116; SF-268; NCI-H23; SW-620; UACC-62; A498; HOP-62; SF-539; SNB-75; HCC 2998; MDA-N; NCI/ADR-RES.
Holding throughout (assay): growth of human tumour cells (NCI), 48 h

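The compound was tested at five concentrations on cells cultured in 96-well plates, with a 48-hour exposure period. Abbreviation: GI50, concentration required for 50% inhibition of growth.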 Calls of active or inactive are those of the source. Cut-off read from the data, not from the text of the source: active = GI50 up to about 1.1 µM and inactive = higher. Where only a bound is given, the exact number is not on record here.

Regarding `O=C1NC(=O)c2ccc([N+](=O)[O-])c3cccc1c23`, the GI50 in the assay on NCI-H226 is 14.3 µM (inactive); in the assay with COLO 205, 14.9 µM (inactive); in the assay with OVCAR-8, 12.6 µM (inactive); in the assay with SK-MEL-5, 18.9 µM (inactive); in the assay on OVCAR-4 it was 20 µM (inactive); with K562 it was 10.9 µM (inactive). For the same compound, the GI50 with A549 is 20.8 µM (inactive); in the assay on T47D it was 18.6 µM (inactive); in the assay on HCT-116, 11.7 µM (inactive); with SF-268, 24.4 µM (inactive); in the assay on NCI-H23, 17.1 µM (inactive); in the assay with SW-620, 13 µM (inactive). The GI50 in the assay on UACC-62 was 13.9 µM (inactive); in the assay on A498, 13.2 µM (inactive); in the assay on HOP-62, 20 µM (inactive); in the assay with SF-539, 17.9 µM (inactive); in the assay with SNB-75 it was 40.1 µM (inactive); in the assay with HCC 2998 it was 24.7 µM (inactive). Further, the GI50 in the assay with MDA-N was 12.4 µM (inactive).
For `C/C(=C\CNc1ncnc2c1ncn2CCC#N)CO`, the GI50 in the assay on NCI/ADR-RES, in the assay on NCI-H226, with COLO 205, with OVCAR-8, in the assay with SK-MEL-5 and with OVCAR-4 was > 100 µM (inactive) throughout. Also, the GI50 in the assay on K562, with A549, in the assay with T47D, in the assay with HCT-116, with SF-268 and in the assay on NCI-H23 was > 100 µM (inactive) throughout. Moreover, the GI50 with SW-620, with UACC-62, in the assay with HOP-62, with SF-539, with SNB-75 and in the assay on HCC 2998 was > 100 µM (inactive) throughout. In addition, the GI50 in the assay with MDA-N is > 100 µM (inactive).
For `Cc1ccc(C(=O)/C=C2\Nc3ccccc3N=C2NC23CC4CC(CC(C4)C2)C3)cc1`, the GI50 is > 10 µM (inactive) in the assay on NCI/ADR-RES; > 10 µM (inactive) in the assay on COLO 205; > 10 µM (inactive) in the assay with OVCAR-8; > 10 µM (inactive) with SK-MEL-5; 7.66 µM (inactive) with OVCAR-4; > 10 µM (inactive) in the assay with K562. Further, the GI50 in the assay with A549 is > 10 µM (inactive); in the assay with T47D it was > 10 µM (inactive); in the assay on HCT-116, > 10 µM (inactive); in the assay with SF-268, > 10 µM (inactive); in the assay on NCI-H23 it was > 10 µM (inactive); in the assay on SW-620 it was 7.24 µM (inactive). In addition, the GI50 in the assay on UACC-62, in the assay on HOP-62, in the assay with SF-539, with SNB-75, in the assay on HCC 2998 and in the assay with MDA-N was > 10 µM (inactive) each time.
As for `CC1=C(C(=O)Nc2cccc3c2C(=O)NC3=O)CC(C(=O)Nc2cccc3c2C(=O)NC3=O)=C(C)N1`, the GI50 is 40.7 µM (inactive) in the assay on COLO 205; > 100 µM (inactive) with SK-MEL-5; > 100 µM (inactive) with OVCAR-4; > 100 µM (inactive) in the assay on K562; > 100 µM (inactive) with A549; > 100 µM (inactive) in the assay with T47D. In addition, the GI50 in the assay on HCT-116, in the assay with SF-268, in the assay with NCI-H23, with SW-620, in the assay with UACC-62 and in the assay with A498 was > 100 µM (inactive) each time. The GI50 is > 100 µM (inactive) in the assay on HOP-62; > 100 µM (inactive) in the assay on SF-539; 88.3 µM (inactive) in the assay on SNB-75; 95.5 µM (inactive) with HCC 2998; > 100 µM (inactive) in the assay with MDA-N.
On to `O=c1[nH]c(=O)n(C2CC(O)C(CO)O2)cc1/N=N/NCc1ccccc1` (stereo not given), for which the GI50 in the assay on NCI/ADR-RES was > 100 µM (inactive); with NCI-H226, > 100 µM (inactive); in the assay on COLO 205, > 10 µM (inactive); in the assay on OVCAR-8, > 100 µM (inactive); in the assay on SK-MEL-5 it was > 100 µM (inactive); in the assay on OVCAR-4 it was > 100 µM (inactive). In addition, the GI50 in the assay with K562, in the assay on A549, in the assay with T47D, in the assay on HCT-116, in the assay with SF-268 and in the assay with NCI-H23 was > 100 µM (inactive) throughout. The GI50 in the assay with UACC-62, in the assay with HOP-62, with SNB-75 and in the assay with MDA-N was > 100 µM (inactive) each time.
As for `Cc1ccc(/C=C2\CNC/C(=C\c3ccc(C)cc3)C2=O)cc1`, the GI50 was 1.84 µM (inactive) in the assay on NCI-H226; 2.13 µM (inactive) in the assay on COLO 205; 2.19 µM (inactive) in the assay with OVCAR-8; 2.43 µM (inactive) in the assay with SK-MEL-5; 2.34 µM (inactive) in the assay with OVCAR-4; 0.323 µM (active) in the assay on K562. For the same compound, the GI50 in the assay on A549 is 2.83 µM (inactive); in the assay on T47D, 2.65 µM (inactive); in the assay with HCT-116, 0.313 µM (active); with SF-268, 2.53 µM (inactive); in the assay with NCI-H23, 1.83 µM (inactive); in the assay on SW-620, 1.12 µM (inactive). Besides, the GI50 is 2.04 µM (inactive) with UACC-62; 1.89 µM (inactive) in the assay with A498; 2.72 µM (inactive) in the assay with HOP-62; 2.2 µM (inactive) with SF-539; 22.9 µM (inactive) in the assay on SNB-75; 1.67 µM (inactive) with HCC 2998. Moreover, in the assay with MDA-N, the GI50 was 2.49 µM (inactive).
With `COC(=O)C(Nc1ccc(OC)cc1)c1ccccc1` (stereo not given), the GI50 in the assay on NCI/ADR-RES is 74.1 µM (inactive); in the assay with COLO 205, > 100 µM (inactive); in the assay with OVCAR-8, > 100 µM (inactive); in the assay with SK-MEL-5, > 100 µM (inactive); in the assay on K562, > 100 µM (inactive); in the assay on A549 it was > 100 µM (inactive). Also, the GI50 with T47D, in the assay on HCT-116, in the assay on SF-268, in the assay on NCI-H23, in the assay on SW-620 and in the assay with UACC-62 was > 100 µM (inactive) each time. For the same compound, the GI50 in the assay on HOP-62, in the assay with SF-539 and in the assay on MDA-N was > 100 µM (inactive) each time.
Turning to `CCO/C=N/C1=C(C#N)C(c2ccc(OC)c(OC)c2)c2c(-c3ccccc3)nn(-c3ccccc3)c2O1` (stereo not given), the GI50 in the assay on NCI/ADR-RES was 15.6 µM (inactive); in the assay on NCI-H226, 11.3 µM (inactive); in the assay on COLO 205 it was 13.1 µM (inactive); in the assay on OVCAR-8 it was 19.2 µM (inactive); in the assay on SK-MEL-5, 12 µM (inactive); in the assay on K562, 6.68 µM (inactive). Also, the GI50 is 18.3 µM (inactive) in the assay with A549; 9.14 µM (inactive) with T47D; 13.1 µM (inactive) in the assay on HCT-116; 18.5 µM (inactive) in the assay on SF-268; 15.4 µM (inactive) with NCI-H23; 11.8 µM (inactive) in the assay on SW-620. Besides, the GI50 in the assay with UACC-62 was 14.4 µM (inactive); in the assay on HOP-62 it was 17.7 µM (inactive); in the assay with SF-539, 8.67 µM (inactive); in the assay with SNB-75 it was 15.5 µM (inactive); with HCC 2998, > 100 µM (inactive); in the assay with MDA-N, 18.7 µM (inactive).
Consider `CCn1c(=O)c2nc(SC)sc2n(-c2ccccc2)c1=O`, for which the GI50 in the assay on NCI/ADR-RES, in the assay on NCI-H226, in the assay with COLO 205, with OVCAR-8, in the assay on SK-MEL-5 and in the assay on OVCAR-4 was > 100 µM (inactive) each time. Moreover, the GI50 in the assay with K562, with A549, in the assay on T47D, in the assay on HCT-116, in the assay with SF-268 and with NCI-H23 was > 100 µM (inactive) throughout. Also, the GI50 in the assay with SW-620, with HOP-62, in the assay with SF-539, with SNB-75, in the assay with HCC 2998 and with MDA-N was > 100 µM (inactive) throughout.
As to `C/C=C1/CN2CCC3(O)c4ccccc4N4C=C(C(=O)OC)C1CC2C43O` (stereo not given), the GI50 was > 100 µM (inactive) in the assay on NCI/ADR-RES; > 100 µM (inactive) in the assay with COLO 205; > 100 µM (inactive) in the assay on OVCAR-8; > 100 µM (inactive) in the assay on SK-MEL-5; > 100 µM (inactive) in the assay with OVCAR-4; 81.5 µM (inactive) with K562. Moreover, the GI50 in the assay with A549, in the assay with T47D, in the assay on HCT-116, with SF-268, in the assay with NCI-H23 and in the assay on SW-620 was > 100 µM (inactive) throughout. Besides, the GI50 in the assay with UACC-62, in the assay on HOP-62, in the assay on SF-539, in the assay with SNB-75, in the assay with HCC 2998 and with MDA-N was > 100 µM (inactive) in each case.
On to `COc1cc(C=O)ccc1O` [VANILLIN], for which the GI50 with NCI/ADR-RES, in the assay with NCI-H226, in the assay on COLO 205, in the assay with OVCAR-8, with SK-MEL-5 and in the assay on OVCAR-4 was > 100 µM (inactive) throughout. Besides, the GI50 in the assay on K562, with A549, in the assay with T47D, with HCT-116, in the assay with SF-268 and in the assay on NCI-H23 was > 100 µM (inactive) throughout. Further, the GI50 with SW-620, in the assay on HOP-62, with SF-539, in the assay with SNB-75, in the assay with HCC 2998 and in the assay on MDA-N was > 100 µM (inactive) throughout.
